Like-named read-outs stand apart in the source and are kept apart here.
How the values were obtained:
[1] = Phase 1 rising-single-dose pharmacokinetic study in healthy adult subjects (Example 1); assay type: in vivo, human; conditions: for half-life / AUC / Tmax / Cmax / Vd/F: human; for AUC: po; for DN AUC(l) / DN AUC(tf) / DN Cmax: dose-normalized (to 50 mg)
Procedure: A Phase 1, randomized, third-party-blind (within dose level), placebo-controlled, rising-single-dose study of compounds of Formulae I-XXVI was conducted in healthy adult subjects.
Nine subjects in each group received either compound of Formula Ia (n=6) or placebo (n=3). Those subjects randomized to active compound received one of the following doses of compound of Formula Ia: 50, 100, 200, 400, 600, or 800 mg.
On Day 1, at least 10 hours prior to compound administration, an overnight fast was maintained until 4 hours following treatment administration, after which lunch was served. During the fasting period, no food or fluid (except noncarbonated water) was permitted; furthermore, drinking water was prohibited from 2 hours predose to 2 hours postdose, with the exception of the approximately 240 mL administered with the treatments.
Blood samples (7 mL each) for the determination of compound of Formula Ia concentrations were collected immediately prior to dosing (0 hour), and at 0.25, 0.5, 0.75, 1, 1.5, 2, 3, 4, 5, 6, 8, 10, 12, 18, 24, 36, 48, 72, and 144 hours postdose. The blood samples were collected into tubes containing EDTA. The samples were separated by centrifugation at 4° C. for 15 minutes at 1500 g to obtain the plasma, and the plasma samples frozen at −20° C. until assayed.
Plasma concentrations of compound of Formula Ia were determined using a validated liquid chromatography tandem mass spectrometry (LC-MS/MS) method. The assay lower limit of quantitation (LLOQ) was 0.50 ng/mL, and the method was validated over the concentration range of 0.50 to 1000 ng/mL.
The mean and percent coefficients of variation (% CV) were calculated for the plasma concentrations of compound of Formula Ia at each time point. Concentration values less than the assay LLOQ were reported as and set to zero in the calculations and tables. The plasma concentration-time data for compound of Formula Ia were subjected to pharmacokinetic analysis by noncompartmental methods using WinNonlin software. Nominal sampling times were used for pharmacokinetic analysis.
For each subject, the following compound of Formula Ia pharmacokinetic parameters were determined: • Cmax Maximum observed plasma concentration • Tmax Time of maximum observed plasma concentration • tf Time of final quantifiable sample • AUC(tf) Area under the plasma concentration-time curve from time 0 to tf • AUC(l) Area under the plasma concentration-time curve from time 0 to infinity [AUC(l)=[…]+C(tf)estimated/k, where k and C(tf)estimated are terminal elimination rate constant and estimated concentration at final quantifiable sample, respectively] • t½ Terminal-phase half-life (t½=ln 2/k) • CL/F Apparent total body clearance (CL/F=Dose/AUC[l]) • Vd/F Apparent volume of distribution (Vd/F=CL/F*(t1/2/0.693))
Dose-adjusted (to 50 mg) Cmax, AUC(l), and AUC(tf) values were also calculated. Cmax, Tmax, and if were the observed values. The terminal phase rate constant (k) was calculated as the negative of the slope of the log-linear terminal portion of the plasma concentration-time curve using linear regression (at least three time points). The number of points needed to determine the terminal phase rate constant was selected by WinNonlin software.
Summary statistics, including means, standard deviations, and coefficients of variation (CV) expressed as a percent, were computed for the single-dose plasma compound of Formula Ia concentration data at each sampling time point and for the derived pharmacokinetic parameters for each dose level using a standard program based on SAS/STAT (Release 6.12; SAS Institute Inc., North Carolina).
The log-transformed dose-adjusted (to 50 mg) Cmax and AUC values of compound of Formula Ia were statistically analyzed using an analysis of variance (ANOVA) model. The effect due to treatment (dose) was extracted. Ninety-five percent confidence intervals (CIs) for the means at each dose level, based on the nontransformed data, were provided. […]

[2] = system: bicistronic subgenomic replicon (genotype 1b); test: Bicistronic subgenomic replicon suppression, 72 hour assay in HuH-7 cells; assay type: cell-based, HCV; conditions: Hepatitis C virus
Text: NS3-mediated cleavage of the HCV polyprotein releases functional viral proteins essential for viral propagation. Therefore, blockage of NS3 protease activity by compound of Formula Ia is expected to inhibit viral replication in infected host cells.

[3] = plasma, single oral dose 50 mg, mean, n = 6
[4] = plasma, single oral dose 100 mg, mean, n = 6
[5] = plasma, single oral dose 200 mg, mean, n = 6
[6] = plasma, single oral dose 400 mg, mean, n = 6
[7] = plasma, single oral dose 600 mg, mean, n = 6
[8] = plasma, single oral dose 800 mg, mean, n = 6
[9] = single oral dose 50 mg, mean, n = 6
[10] = single oral dose 100 mg, mean, n = 6
[11] = single oral dose 200 mg, mean, n = 6
[12] = single oral dose 400 mg, mean, n = 6
[13] = single oral dose 600 mg, mean, n = 6
[14] = single oral dose 800 mg, mean, n = 6

`CC(C)(C)NC(=O)N[C@H](C(=O)N1C[C@H]2[C@@H]([C@H]1C(=O)NC(CC1CCC1)C(=O)C(N)=O)C2(C)C)C(C)(C)C` (mixture of isomers) [Formula Ia, (1 R, 5S)-N-[3-Amino-1-(Cyclobutylmethyl)-2,3-Dioxopropyl]-3-[2(S)-[[[(1,1-Dimethylethyl)Amino]Carbonyl]Amino]-3,3-Dimethyl-1-Oxobutyl]-6,6-Dimethyl-3-Azabicyclo[3.1.0]Hexan-2(S)-Carboxamide] showed a half-life ([1]; plasma, oral, 100-800 mg dose cohorts, read-out: mean terminal phase half-life (t½)) of 7 to 15 h, an AUC ([1]; plasma, 50 mg, single oral dose 50 mg, mean, n = 6, read-out: AUC(l)) of 181 ng·h/mL and an AUC ([1]; plasma, 50 mg, single oral dose 50 mg, mean, n = 6, read-out: AUC(tf)) of 179 ng·h/mL. For the same compound, the AUC ([1]; plasma, 100 mg, single oral dose 100 mg, mean, n = 6, read-out: AUC(l)) was 345 ng·h/mL, the AUC ([1]; plasma, 100 mg, single oral dose 100 mg, mean, n = 6, read-out: AUC(tf)) was 337 ng·h/mL and the AUC ([1]; plasma, 200 mg, single oral dose 200 mg, mean, n = 6, read-out: AUC(l)) was 846 ng·h/mL. It also gave an AUC ([1]; plasma, 200 mg, single oral dose 200 mg, mean, n = 6, read-out: AUC(tf)) of 831 ng·h/mL, an AUC ([1]; plasma, 400 mg, single oral dose 400 mg, mean, n = 6, read-out: AUC(l)) of 1560 ng·h/mL and an AUC ([1]; plasma, 400 mg, single oral dose 400 mg, mean, n = 6, read-out: AUC(tf)) of 1530 ng·h/mL. It also gave an AUC ([1]; plasma, 600 mg, single oral dose 600 mg, mean, n = 6, read-out: AUC(l)) of 2160 ng·h/mL, an AUC ([1]; plasma, 600 mg, single oral dose 600 mg, mean, n = 6, read-out: AUC(tf)) of 2140 ng·h/mL and an AUC ([1]; plasma, 800 mg, single oral dose 800 mg, mean, n = 6, read-out: AUC(l)) of 2320 ng·h/mL. The AUC ([1]; plasma, 800 mg, single oral dose 800 mg, mean, n = 6, read-out: AUC(tf)) was 2300 ng·h/mL, the Tmax ([1]; plasma, across single oral doses 50-800 mg, read-out: median Tmax) was 1 to 2.25 h and the Cmax [1, 3] was 58.7 ng/mL. It also gave a Vd/F [1, 3] of 1070 L, a Tmax ([1]; plasma, single oral dose 50 mg, median, n = 6, read-out: Tmax) of 1.5 h and a Cmax [1, 4] of 111 ng/mL. For the same compound, the Vd/F [1, 4] was 2680 L, the half-life ([1]; plasma, single oral dose 100 mg, mean, n = 6, read-out: t½ (converted)) was 6.84 h and the Tmax ([1]; plasma, single oral dose 100 mg, median, n = 6, read-out: Tmax) was 2 h. The Cmax [1, 5] was 281 ng/mL, the Vd/F [1, 5] was 3840 L and the half-life ([1]; plasma, single oral dose 200 mg, mean, n = 6, read-out: t½ (converted)) was 10.8 h. The Tmax ([1]; plasma, single oral dose 200 mg, median, n = 6, read-out: Tmax) was 1 h, the Cmax [1, 6] was 445 ng/mL and the Vd/F [1, 6] was 5400 L. For the same compound, the half-life ([1]; plasma, single oral dose 400 mg, mean, n = 6, read-out: t½ (converted)) was 15.4 h, the Tmax ([1]; plasma, single oral dose 400 mg, median, n = 6, read-out: Tmax) was 1.75 h and the Cmax [1, 7] was 528 ng/mL. It also gave a Vd/F [1, 7] of 4110 L, a half-life ([1]; plasma, single oral dose 600 mg, mean, n = 6, read-out: t½ (converted)) of 10.2 h and a Tmax ([1]; plasma, single oral dose 600 mg, median, n = 6, read-out: Tmax) of 2.25 h. The Cmax [1, 8] was 616 ng/mL, the Vd/F [1, 8] was 5450 L and the half-life ([1]; plasma, single oral dose 800 mg, mean, n = 6, read-out: t½ (converted)) was 10.1 h. For the same compound, the Tmax ([1]; plasma, single oral dose 800 mg, median, n = 6, read-out: Tmax) was 1.25 h, the half-life ([1]; single oral dose 50 mg, mean, n = 6, value could not be well characterized because of low plasma concentrations in the terminal phase, read-out: t½ (converted)) was 2.69 h and the “DN AUC(l)” value ([1]; single oral dose 50 mg, mean) was 181 ng·h/mL. For the same compound, the “DN AUC(tf)” value ([1]; single oral dose 50 mg, mean) was 179 ng·h/mL, the “DN Cmax” value ([1]; single oral dose 50 mg, mean) was 58.7 ng/mL and the CL/F [1, 9] was 277 L/h. The “tf (time of final quantifiable sample)” value [1, 9] was 15.3 h, the “DN AUC(l)” value ([1]; single oral dose 100 mg, mean) was 172 ng·h/mL and the “DN AUC(tf)” value ([1]; single oral dose 100 mg, mean) was 169 ng·h/mL. For the same compound, the “DN Cmax” value ([1]; single oral dose 100 mg, mean) was 55.4 ng/mL, the CL/F [1, 10] was 315 L/h and the “tf (time of final quantifiable sample)” value [1, 10] was 26 h. The “DN AUC(l)” value ([1]; single oral dose 200 mg, mean) was 212 ng·h/mL, the “DN AUC(tf)” value ([1]; single oral dose 200 mg, mean) was 208 ng·h/mL and the “DN Cmax” value ([1]; single oral dose 200 mg, mean) was 70.3 ng/mL. For the same compound, the CL/F [1, 11] was 254 L/h, the “tf (time of final quantifiable sample)” value [1, 11] was 40.0 h and the “DN AUC(l)” value ([1]; single oral dose 400 mg, mean) was 195 ng·h/mL. For the same compound, the “DN AUC(tf)” value ([1]; single oral dose 400 mg, mean) was 191 ng·h/mL, the “DN Cmax” value ([1]; single oral dose 400 mg, mean) was 55.7 ng/mL and the CL/F [1, 12] was 279 L/h. The “tf (time of final quantifiable sample)” value [1, 12] was 52.0 h, the “DN AUC(l)” value ([1]; single oral dose 600 mg, mean) was 180 ng·h/mL and the “DN AUC(tf)” value ([1]; single oral dose 600 mg, mean) was 178 ng·h/mL. For the same compound, the “DN Cmax” value ([1]; single oral dose 600 mg, mean) was 44.0 ng/mL, the CL/F [1, 13] was 288 L/h and the “tf (time of final quantifiable sample)” value [1, 13] was 52 h. The “DN AUC(l)” value ([1]; single oral dose 800 mg, mean) was 145 ng·h/mL, the “DN AUC(tf)” value ([1]; single oral dose 800 mg, mean) was 144 ng·h/mL and the “DN Cmax” value ([1]; single oral dose 800 mg, mean) was 38.5 ng/mL. The CL/F [1, 14] was 399 L/h, the “tf (time of final quantifiable sample)” value [1, 14] was 56 h and the IC50 ([2]; n=25, read-out: IC50 for suppression (4-log reduction) of the replicon (converted)) was ~200 nM. For the same compound, the IC90 ([2]; n=25, read-out: IC90 for suppression (4-log reduction) of the replicon (converted)) was ~400 nM.
